# Laboratory results from patent US8895580B2, “Quinolinone-pyrazolone M1 receptor positive allosteric modulators” (Merck Sharp & Dohme Corp., priority 2009, dated 2014).
# pEC50: −log10 of the molar value.
# Biological target: T1, acetylcholine muscarinic M1 receptor (CHOnfat/hM1 cells) (Homo sapiens, UniProt P11229)
# T1 construct: expressed in transfected cells; host or cells: CHOnfat cells (CHOnfat/hM1; Geneticin-selected)
# T1 sequence (P11229 1-460): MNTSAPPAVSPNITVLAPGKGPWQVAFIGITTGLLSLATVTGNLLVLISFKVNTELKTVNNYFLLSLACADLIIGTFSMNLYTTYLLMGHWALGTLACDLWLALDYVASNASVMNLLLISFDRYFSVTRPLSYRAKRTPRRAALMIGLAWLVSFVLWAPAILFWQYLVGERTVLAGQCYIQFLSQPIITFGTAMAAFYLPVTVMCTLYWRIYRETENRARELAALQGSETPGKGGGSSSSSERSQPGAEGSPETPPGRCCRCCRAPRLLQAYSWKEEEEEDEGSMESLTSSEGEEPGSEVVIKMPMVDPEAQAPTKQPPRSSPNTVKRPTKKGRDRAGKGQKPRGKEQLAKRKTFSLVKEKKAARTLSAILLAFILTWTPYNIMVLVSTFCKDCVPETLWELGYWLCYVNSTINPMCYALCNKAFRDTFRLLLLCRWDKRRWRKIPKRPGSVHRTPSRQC
# Test: muscarinic M1 FLIPR intracellular calcium assay (positive allosteric modulation)
# Format: cell-based
# Conditions: FLIPR Ca2+, 4 min preincubation, then EC20 acetylcholine (3 nM final), read-out: IP Value (inflection point)
# Experimental: The assay studies the effect of one or several concentrations of test compounds on basal or acetylcholine-stimulated Ca^2+ levels using FLIPR.
# Compounds are prepared and subjected to a preincubation period of 4 min. Thereafter, a single EC20 concentration of acetylcholine is added to each well (3 nM final). The intracellular Ca^2+ level of each sample is measured and compared to an acetylcholine control to determine any modulatory activity.
# Cells: CHOnfat/hM1, hM2, hM3 or hM4 cells are plated 24 hr before the assay at a density of 18,000 cells/well (100 μL) in a 384 well plate. CHOnfat/hM1 and CHOnfat/hM3 Growth Medium: 90% DMEM (Hi Glucose); 10% HI FBS; 2 mM L-glutamine; 0.1 mM NEAA; Pen-Strep; and 1 mg/ml Geneticin, are added. For M2Gqi5CHOnfat and M4Gqi5CHOnfat cells, an additional 600 ug/ml hygromycin is added.
# Equipment: 384 well plate, 1204 addition plate; 96-well Whatman 2 ml Uniplate Incubator, 37° C., 5% CO2; Skatron EMBLA-384 Plate Washer; Multimek Pipetting System; Genesis Freedom 200 System; Mosquito System; Temo Nanoliter Pipetting System; and FLIPR^384 Fluorometric Imaging Plate Reader System are used.
# Buffers. Assay Buffer: Hanks Balanced Salt Solution, with 20 mM Hepes, 2.5 mM Probenecid (Sigma P-8761) first dissolved in 1 N NaOH, 1% Bovine Serum Albumin (Sigma A-9647). Dye Loading Buffer: Assay Buffer plus 1% Fetal Bovine Serum and Fluo-4AM/Pluronic Acid Mixture. 2 mM Fluo-4AM ester stock in DMSO (Molecular Probes F-14202) Concentration of 2 μM in buffer for a final concentration of 1 μM in Assay. 20% Pluronic Acid Solution stock, with concentration of 0.04% in Buffer, 0.02% in Assay.
# 65 μL of 2 mM Fluo-4AM are mixed with 130 μL of 20% Pluronic Acid. The resulting solution and 650 μL FBS is added to the assay buffer for a total volume of 65 mL. Positive Controls: 4-Br-A23187: 10 mM in DMSO; final concentration 10 μM. Acetylcholine: 10 mM in water, working stock at both 20 μM and 30 μM in assay buffer, final concentration of 10 μM. This is used to check the maximum stimulation of the CHOK1/hM1 cells, 20 μM (2×) acetylcholine is added in the preincubation part of the assay, and the 30 μM (3×) stock is added in the second part. (EC20)Acetylcholine: 10 mM in water, working stock of 9 nM (3×), and final concentration in assay is 3 nM. This is used after the preincubation with test compounds. Addition of the EC20 Acetylcholine to each well with a test compound will ascertain any modulator activity. 24 wells contain 3 nM Acetylcholine alone as a control.
# Determining Activity of Putative Compounds:
# Screening Plate Compounds are titrated in 96-well plates (columns 2-11), 100% DMSO, started at a concentration of 15 mM (150× stock concentration), and 3-fold serial dilutions using Genesis Freedom200 System. Four 96-well plates are combined into a 384-well plate using Mosquito Nanoliter Pipetting System by transferring 1 μl of serial diluted compounds to each well, and 1 mM acetylcholine (100× stock concentration) were added as a control. Using Temo, 49 μl assay buffer is added to each well of the 384-well plate right before assay.
# In a 96-well Whatman 2 ml Uniplate, 9 nM Acetylcholine (3×) is pipetted into wells corresponding to the screening compounds, and into control wells. The 30 μM acetylcholine control (3×) is added into control wells, and the 3× agonist plate is transferred into a 384 well plate.
# Cells are washed three times with 100 μl, of buffer, leaving 30 μl of buffer in each well. Using Multimek, 30 μL of Dye Loading Buffer is added into each well and incubated at 37° C., 5% CO2 for up to one hr.
# After 60 min, the cells are washed three times with 100 μl of buffer, leaving 30 μl, of buffer in each well. The cell plate, screening plate, and agonist addition plates are placed on the platform in the FLIPR and the door closed. A signal test to check background fluorescence and basal fluorescence signal is performed. Laser intensity is adjusted if necessary. […]
row,Structure (SMILES),pEC50
1,"CNC(=O)c1ccccc1-n1nc2c3ccccc3n(Cc3ccc(-n4cccn4)cc3)cc-2c1=O [Example 612, N-Methyl-2-(3-oxo-5-{[4-(1H-pyrazol-1-yl)phenyl]methyl}-3,5-dihydro-2H-pyrazolo[4,3-c]quinolin-2-yl)benzamide]",5.31
2,"O=c1c2cn(Cc3ccc(-n4cccn4)cc3)c3c(F)ccc(F)c3c-2nn1-c1ccccc1CO [Example 55, 6,9-Difluoro-2-[2-(hydroxymethyl)phenyl]-5-{[4-(1H-pyrazol-1-yl)phenyl]methyl}-2,5-dihydro-3H-pyrazolo[4,3-c]quinolin-3-one]",6.69
3,O=c1c2cn(Cc3c(F)cccc3F)c3ccccc3c-2nn1-c1ccccc1F [Example 294],6.08
4,"O=c1c2cn(Cc3ccc(-n4cncn4)cc3F)c3c(F)ccc(F)c3c-2nn1-c1ccccc1F [Example 84, 6,9-Difluoro-2-(2-fluorophenyl)-5-{[2-fluoro-4-(1H-1,2,4-triazol-1-yl)phenyl]methyl}-2,5-dihydro-3H-pyrazolo[4,3-c]quinolin-3-one]",6.46
5,CC(C)Cn1cc(-c2ccc(Cn3cc4c(=O)n(-c5ccccc5F)nc-4c4ccccc43)cn2)cn1 [Example 242],6.80
6,"O=C1CCCCC1n1nc2c3ccccc3n(Cc3ccc(-n4cccn4)cc3)cc-2c1=O (racemic) [Example 720, (±)-2-(2-oxocyclohexyl)-5-{[4-(1H-pyrazol-1-yl)phenyl]methyl}-2,5-dihydro-3H-pyrazolo[4,3-c]quinolin-3-one]",6.87
7,O=c1c2cn(Cc3ccc(-c4ncco4)cc3)c3ccccc3c-2nn1-c1ccccc1F [Example 381],6.05
8,"O=c1c2cn(Cc3ccc4[nH]ccc4c3)c3ccccc3c-2nn1-c1ccccc1F [Example 109, 2-(2-Fluorophenyl)-5-(1H-indol-5-ylmethyl)-2,5-dihydro-3H-pyrazolo[4,3-c]quinolin-3-one]",7.05
9,"COc1ccc(Cn2cc3c(=O)n(-c4ccccc4F)nc-3c3ccccc32)cc1 [Example 1, 2-(2-Fluorophenyl)-5-{[4-(methoxy)phenyl]methyl}-2,5-dihydro-3H-pyrazolo[4,3-c]quinolin-3-one]",6.38
10,"Cn1cnc(-n2nc3c4c(F)ccc(F)c4n(Cc4ccc(-n5cccn5)cc4)cc-3c2=O)c1 [Example 24, 6,9-Difluoro-2-(1-methyl-1H-imidazol-4-yl)-5-{[4-(1H-pyrazol-1-yl)phenyl]methyl}-2,5-dihydro-3H-pyrazolo[4,3-c]quinolin-3-one]",6.99
11,"N#Cc1cccc(F)c1-n1nc2c3ccccc3n(Cc3ccc(-n4cccn4)cc3)cc-2c1=O [Example 667, 3-Fluoro-2-(3-oxo-5-{[4-(1H-pyrazol-1-yl)phenyl]methyl}-3,5-dihydro-2H-pyrazolo[4,3-c]quinolin-2-yl)benzonitrile]",7.66
12,"CC(=O)N1CCC(n2nc3c4ccccc4n(Cc4ccc(-n5cccn5)cc4)cc-3c2=O)CC1 [Example 675, 2-(1-Acetylpiperidin-4-yl)-5-{[4-(1H-pyrazol-1-yl)phenyl]methyl}-2,5-dihydro-3H-pyrazolo[4,3-c]quinolin-3-one5]",6.18
13,"O=c1c2cn(Cc3ccc(-c4ccc5[nH]ccc5c4)cc3F)c3ccccc3c-2nn1-c1ccccc1F [Example 187, 5{[2-Fluoro-4-(1H-indol-5-yl)phenyl]methyl}-2-(2-fluorophenyl)-2,5-dihydro-3H-pyrazolo[4,3-c]quinolin-3-one]",5.78

# Continued, values first:
row,pEC50,Structure (SMILES)
1,5.89,O=c1c2cn(Cc3nccc4ccccc34)c3ccccc3c-2nn1-c1ccccc1F [Example 128]
2,6.44,O=c1c2cn(Cc3ccc(-n4cccn4)cc3)c3ccccc3c-2nn1C1CCOCC1 [Example 428]
3,6.91,CCNCc1ccccc1-n1nc2c3c(F)ccc(F)c3n(Cc3ccc(-n4cccn4)cc3)cc-2c1=O [Example 56]
4,7.19,"O=c1c2cn(Cc3ccc(-n4cccn4)cc3)c3c(F)ccc(F)c3c-2nn1-c1ncccc1C(F)(F)F [Example 77, 6,9-Difluoro-5-{[4-(1H-pyrazol-1-yl)phenyl]methyl}-2-[3-(trifluoromethyl)pyridin-2-yl]-2,5-dihydro-3H-pyrazolo[4,3-c]quinolin-3 one]"
5,6.75,"O=c1c2cn(Cc3ccc(-n4cccn4)cc3)c3ccccc3c-2nn1-c1ccccc1CN1CCCC1 [Example 648, 5-{[4-(1H-Pyrazol-1-yl)phenyl]methyl}-2-[2-(pyrrolodin-1-ylmethyl)phenyl]-2,5-dihydro-3H-pyrazolo[4,3-c]quinolin-3-one]"
6,7.48,"O=c1c2cn(Cc3ccc(-n4cccn4)cc3)c3ccccc3c-2nn1[C@H]1CCCC[C@@H]1O (racemic) [Example 508, (±)-2-(trans-2-Hydroxycyclohexyl)-5-{[4-(1H-pyrazol-1-yl)phenyl]methyl}-2,5-dihydro-3H-pyrazolo[4,3-c]quinolin-3-one]"
7,6.61,Cc1ccc(-c2ccc(Cn3cc4c(=O)n(-c5ccccc5F)nc-4c4ccccc43)nc2)cn1 [Example 258]
8,6.19,"Cc1ccnc(N[C@H]2CCCC[C@@H]2n2cc3c(=O)n(-c4nccc(C)c4F)nc-3c3c(NCc4ccc(-n5cccn5)cc4)c(F)ccc32)c1F (racemic) [Example 733, (±)-8-Fluoro-2-(3-fluoro-4-methylpyridin-2-yl)-5-trans-2-[(3-fluoro-4-methylpyridin-2-yl)amino]cyclohexy}-9-({[4-(1H-pyrazol-1-yl)phenyl]methyl}amino)-2,5-dihydro-3H-pyrazolo[4,3-c]quinolin-3-one]"
9,7.23,"O=c1c2cn(Cc3ccc(-n4cccn4)cc3)c3ccccc3c-2nn1-c1ccccc1F [Example 107, 2-Fluorophenyl-5-{[4-(1H-pyrazol-1-yl)phenyl]methyl}-2,5-dihydro-3H-pyrazolo[4,3-c]quinolin-3-one]"
10,5.90,"CCN(CC)C(=O)Cn1nc2c3ccccc3n(Cc3ccc(-n4cccn4)cc3)cc-2c1=O [Example 690, N,N-Diethyl-2-(3-oxo-5-{[4-(1H-pyrazol-1-yl)phenyl]methyl}-3,5-dihydro-2H-pyrazol[4,3-c]quinolin-2-yl)acetamide]"
11,5.70,"O=c1c2cn(Cc3ccc(-c4ccccc4)cc3)c3ccccc3c-2nn1-c1ccccc1F [Example 8, 2-(2-Fluorophenyl)-5-(biphenyl-4-ylmethyl)-2,5-dihydro-3H-pyrazolo[4,3-c]quinolin-3-one]"
12,8.32,O=C1CCc2cccc(-n3nc4c5ccccc5n(Cc5ccc(-n6cccn6)cc5)cc-4c3=O)c21 [Example 587]
